Results taken from patent US8470525B2, “Method for analyzing air” (priority 2011, dated 2013).

What was measured:
Type in all cases: biochemical
[1] = Air monitoring device: detection of aerosolized enzyme protein by fluorescence from indoxyl acetate substrate; settings: Example 6, FIG. 10: enzyme solution 3 mg/ml aerosolized; 3 minute cycles; cycles four, five and six; clean air amplitude 0
Method: Example 6 provides a method of this invention for the detection of a protein in the air. The device in this example was operated continuously in 3 minute cycles. Each cycle consists of a 30 second sampling period at a flow rate of 1 liter per minute, a 5 second substrate addition step, a 85 second reading period and a 60 second rinse step. The consumables/reagents consisted of a) 12.5 mg/ml indoxyl acetate substrate solution in isopropyl alcohol (IPA), diluted in buffer 100 fold and b) 100 mM buffer at pH 7.0. This example used a polyethylene disk with a pore size of 15-45 um and a thickness of 1.6 mm as the impactor disk. The substrate aerosol was generated using 5×500 ms pulses every second for 5 seconds total. The rinse step at conclusion of the cycle was accomplished by continuously aerosolizing buffer for about 60 seconds.
Specifically, acetylcholinesterase enzyme solution was aerosolized into a plastic test chamber at a concentration of 3 mg/ml. The sampled air was contaminated with enzyme two times at intervals indicated by solid triangles (beginning) and white triangles (end). As set forth in FIG. 10, the device indicated the presence of the target protein by an amplitude increase to at least 2,000 fluorescent units in cycles four, five and six compared to an amplitude of 0 in cycles one, two and three during the time clean air was sampled.

[2] = molecular target: T1, acetylcholinesterase enzyme (Homo sapiens, UniProt P22303); assay: Enzyme-based air monitoring device: detection of cholinesterase inhibitor in air by loss of acetylcholinesterase/indoxyl acetate fluorescence signal; settings: Example 4, FIG. 8: aerosol from 2.5 ppm paraoxon solution; 4 minute cycles; polyethylene disk 15-45 um; clean-air cycle around 14,000
Method: In this embodiment of the invention, the device and method operates in repetitive cycles ranging from 30 seconds to 10 minutes. […] The cycle shown in FIG. 2 took 5 minutes for completion. The enzyme and substrate addition took 5 seconds, the sampling time took 115 seconds, the reading took 85 seconds and was concluded by the alarm status update at the end which requires only a fraction of a second, and the rinse took 90 seconds. Each cycle concludes with the rinse step where components of the reaction are rinsed off the surface of the collection matrix and preferably from the reaction zone and the surface of the collection matrix, in order to set the stage for a new sampling cycle.
FIGS. 3a and 3b illustrate the steps of one 5 minute cycle with no detection event in more detail. […] Particles, aerosols and vapor from the environment are collected on the impactor disk or surface of the collection matrix. During this step one nebulizer is activated adding aerosolized enzyme visualized in FIGS. 3a and 3b by clam shaped symbols. The enzyme is being accumulated on the impactor disk/surface of the collection matrix. […] During the next step 4) 85 seconds reading, the catalytic reaction of the enzyme substrate complex is monitored with an optical system. […] During the reading period, the air sampling pump is typically switched off. […]

[3] = molecular target: T1, acetylcholinesterase enzyme; assay: Air monitoring device: detection of aerosolized enzymatic substrate by fluorescence after enzyme addition; settings: Example 7, FIG. 11: indoxyl acetate solution 0.1 mg/ml aerosolized; 4 minute cycles; cycles three and four; clean air amplitude 500
Method: Example 7 provides a method of this invention to detect other chemicals in the air. The device in this example was operated continuously in 4 minute cycles. Each cycle consists of a 2 minute second sampling period at a flow rate of 1 liter per minute, 5 second enzyme addition step, a 85 second reading period and a 30 second rinse step. The consumables/reagents consisted of a) 3 mg/ml acetylcholinesterase enzyme solution in buffer and b) 100 mM buffer at pH 7.0. This example used a polyethylene disk with a pore size of 15-45 um and a thickness of 1.6 mm as the impactor disk. The enzyme aerosol was generated using 5×500 ms pulses every second for 5 seconds total. The rinse step at conclusion of the cycle was accomplished by continuously aerosolizing buffer for about 30 seconds.
Specifically, indoxyl acetate solution was aerosolized into a plastic test chamber at a concentration of 0.1 mg/ml. […] The device indicated the presence of the target protein by an amplitude increase to at least 3,000 fluorescent units in cycles three and four compared to an amplitude of 500 in cycles one and two during the time clean air was sampled.

T1 sequence (P22303 32-614, species assumed): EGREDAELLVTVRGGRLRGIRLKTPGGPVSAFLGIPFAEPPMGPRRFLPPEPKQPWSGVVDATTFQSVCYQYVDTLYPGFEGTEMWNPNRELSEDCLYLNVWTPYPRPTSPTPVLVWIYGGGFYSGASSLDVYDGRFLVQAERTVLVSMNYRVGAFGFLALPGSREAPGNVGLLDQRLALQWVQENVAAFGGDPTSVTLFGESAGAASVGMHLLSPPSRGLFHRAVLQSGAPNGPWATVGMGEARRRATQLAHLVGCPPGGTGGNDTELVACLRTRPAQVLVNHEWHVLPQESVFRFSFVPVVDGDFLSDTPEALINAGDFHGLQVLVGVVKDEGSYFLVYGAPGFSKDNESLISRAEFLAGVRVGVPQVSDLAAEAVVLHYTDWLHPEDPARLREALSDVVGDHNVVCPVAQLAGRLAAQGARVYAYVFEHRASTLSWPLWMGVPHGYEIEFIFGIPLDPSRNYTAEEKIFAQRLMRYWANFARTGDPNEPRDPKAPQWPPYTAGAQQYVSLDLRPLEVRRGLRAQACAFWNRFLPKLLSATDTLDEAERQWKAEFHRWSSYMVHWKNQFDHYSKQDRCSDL

With acetylcholinesterase the amplitude increase [1] was “at least 2,000 fluorescent units”.
With `CCOP(=O)(OCC)Oc1ccc([N+](=O)[O-])cc1` [paraoxon] the signal amplitude [2] was “around 4,000 fluorescent units”.
For indoxyl acetate, the amplitude increase [3] was “at least 3,000 fluorescent units”.
